Laboratory results reported in US20060239913A1, “Peptide conjugate for magnetic resonance imaging” (priority 2003, published 2006).

Columns and labels:
human MMP-1 [1] = biological target: T1, human MMP-1 (Homo sapiens, UniProt P03956); experiment: In vitro MMP inhibition assay (fluorimetric), MMP-1; assay type: biochemical; settings: for inhibitory activity on MMP-1 (in words): concentration of 1.0E-05 M; for % inhibition of control values: mean of duplicate
T1 construct: endogenous in cells; host or cells: human rheumatoid synovial fibroblast
T1 sequence (P03956 100-469): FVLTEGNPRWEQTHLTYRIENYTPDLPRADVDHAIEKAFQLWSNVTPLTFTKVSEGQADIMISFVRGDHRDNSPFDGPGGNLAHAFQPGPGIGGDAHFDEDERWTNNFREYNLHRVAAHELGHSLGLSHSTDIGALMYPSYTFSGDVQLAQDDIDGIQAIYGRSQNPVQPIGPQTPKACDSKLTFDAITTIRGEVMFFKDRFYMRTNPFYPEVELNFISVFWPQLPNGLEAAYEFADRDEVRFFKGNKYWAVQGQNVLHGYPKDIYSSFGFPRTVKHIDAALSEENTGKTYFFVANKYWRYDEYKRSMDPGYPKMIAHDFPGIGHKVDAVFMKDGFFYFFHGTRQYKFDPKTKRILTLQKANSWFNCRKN
Description: (§1) The ability of compound B or the corresponding peptide hydroxamate to inhibit MMP-1, MMP-2 or MMP-3 activity was tested in vitro, on human enzymes. The reaction was based on the formation of a fluorescent compound produced after MMP-cleavage of a substrate (see table 1 for experimental conditions). Briefly, compound B or the peptide alone was added at 3 different concentrations to a buffer containing the MMP to test. For the control sample, the contrast agent or the peptide was replaced by water. After a pre-incubation period of 30 min at 37° C., the fluorescence intensity was measured using a microplate reader (GeminiXS, Molecular Devices), in order to detect any compound interference with the fluorimetric assay (═F1). The enzymatic reaction was then initiated by the addition of the MMP substrate and the mixture was again incubated at 37° C. After a pre-determined time, a second fluorescent measurement was performed (═F2). The enzyme activity was determined by subtracting the signal F1 from F2, and the results were expressed as a percent inhibition of the control enzyme activity.

human MMP-2 [2] = biological target: T2, human MMP-2 (Homo sapiens, UniProt P08253); experiment: In vitro MMP inhibition assay (fluorimetric), MMP-2; assay type: biochemical; settings: for inhibitory activity on MMP-2 (in words): concentration of 1.0E-05 M; for % inhibition of control values: mean of duplicate
T2 construct: endogenous in cells; host or cells: human rheumatoid synovial fibroblast
T2 sequence (P08253 110-660): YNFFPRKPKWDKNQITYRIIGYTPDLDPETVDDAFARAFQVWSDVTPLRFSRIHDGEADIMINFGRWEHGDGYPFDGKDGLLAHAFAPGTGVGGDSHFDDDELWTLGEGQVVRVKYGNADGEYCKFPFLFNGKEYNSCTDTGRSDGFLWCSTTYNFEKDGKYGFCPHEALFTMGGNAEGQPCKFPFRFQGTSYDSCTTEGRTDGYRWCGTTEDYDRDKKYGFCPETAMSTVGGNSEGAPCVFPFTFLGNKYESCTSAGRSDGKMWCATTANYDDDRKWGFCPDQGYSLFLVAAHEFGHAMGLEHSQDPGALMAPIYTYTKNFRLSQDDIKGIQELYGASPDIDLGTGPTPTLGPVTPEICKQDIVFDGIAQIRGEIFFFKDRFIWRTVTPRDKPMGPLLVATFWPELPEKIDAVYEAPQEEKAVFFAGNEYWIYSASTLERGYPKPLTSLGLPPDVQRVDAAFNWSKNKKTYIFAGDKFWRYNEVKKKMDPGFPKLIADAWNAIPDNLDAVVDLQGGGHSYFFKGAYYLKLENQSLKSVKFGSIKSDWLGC
Description: as §1, with “The” for “The ability of compound B or the corresponding peptide hydroxamate to inhibit MMP-1, MMP-2 or MMP-3 activity was tested in vitro, on human enzymes. The”, “Briefly, compound B or the peptide alone was added at 3 different concentrations to a buffer containing the MMP to test.” left out

[3] = Biodistribution assay in ApoE-KO mice (Gd by ICP-MS); assay type: in vivo; settings: C57Bl/6 background, mouse, plasma, iv, 100 μmol Gd/kg, i.v., read-out: half-life of elimination in plasma
Description: (§2) Animals—the tissue distribution of compound B, when compared to Gd-DOTA, was performed in ApoE-KO mice in a 100% C57Bl/6 background. The animals were bred and housed in the Animal Experiment Unit of the Center of Molecular and Vascular Biology, Leuven, Belgium, and had free access to food and water.
(§3) ApoE-KO mice of 11-12 weeks were fed a cholesterol-rich Western-type diet (Tecklad, Madison, USA) for 4 months. This model of atherosclerosis was fully characterized: it contained extensive atherosclerotic plaques in the heart and aortic arch, where the plaques occupied 34% of the total lumen area. […] Biodistribution—After the diet period, animals were matched for sex and body weight. compounfd B or Gd-DOTA was administered intravenously via the tail vein (n=7/compound), at a clinical dose of 100 μmol Gd/kg. 60 min post-injection, the animals were anaesthetized and blood was obtained via eye bleeding. The mice were then subjected to a transcardiac perfusion with heparinized saline, in order to clear the intravascular compartment from any residual circulating contrast agent. Muscle and different organs (kidney, liver) were removed, as well as some artery specimens (aortic arch, carotid arteries, thoracic aorta, abdominal aorta and femoral artery). Finally, an aliquot of the blood sample was centrifuged and the Gd^3+ contained in all the collected samples was quantified by induced coupled plasma—mass spectrometry (ICP-MS) after acidic mineralization.

ApoE-KO mice = experiment: as above; assay type: in vivo
Description: as §2, §3

[4] = system: artery slices originating from Watanabe Heritable Hyperlipidemic rabbits; experiment: Ex vivo MRI and Gd quantification on WHHL rabbit artery slices; settings: for ex vivo MRI enhancement of the sections / amount of Gd in the sections by ICP-MS (mean value): after 1 h; for ex vivo MRI enhancement of the sections: 3 h or 18 h incubation; for amount of Gd in the sections by ICP-MS (mean value): 3 h or 18 h incubation at 5×10^−4 M Gd, no washing
Description: Specimen preparation—Watanabe Heritable Hyperlipidemic rabbits (CAP, Olivet, France), which develop hypercholesterolemia and subsequent atherosclerosis due to a genetic deficiency of LDL receptors, were profoundly anaesthetized. After their sacrifice by exsanguination, the arterial tree, comprising the aortic arch with the beginning of the efferent arteries, as well as the thoracic aorta and the supra-renal abdominal aorta, was removed in one block and flushed with heparinized Krebs-Ringer Bicarbonate buffer (pH=7.4) in order to clean any remaining blood. The arterial specimen was then kept frozen at −20° C.; it was gently and extemporarily unfrozen for experimental purpose.
(§4) Finally, both rabbits and human atherosclerotic segments were cut in exactly 3.0 mm-thick sections, before their contact with the contrast medium and ex vivo imaging.
Ex vivo incubation—All the slices were deposited in a 24-wells culture plate. They were then incubated under stirring at 37° C., in 1.0 ml of Krebs-Ringer Bicarbonate buffer (pH=7.4), Gd-DOTA or compound B (at a Gd concentration of 5×10^−4 M). After pre-determined incubation periods of 1 h, 3 h or 18 h, the slices originating from the WHHL rabbits were either immediately imaged, or subjected to a washing during 30 min, 1 h or 3 h (n=3 for each condition) in 10.0 ml of Krebs-Ringer bicarbonate buffer, with the medium being replaced every hour. Regarding human samples, only the protocol which allowed the best differentiation between the compounds (i.e. an incubation period of 18 h, followed by a washing of 30 min) was applied. Afterwards, all the slices were drained and prepared for ex vivo imaging. Further the protocol was applied both regarding to lesional plaques and not lesional plaques specimens.
Specificity testing—To additionally test the specificity of the compound B uptake, we repeated the ex vivo 18 h-incubation with a new set of WHHL rabbit atherosclerotic slices which were previously incubated during 30 min with the hydroxamate peptide, at a 10 times higher concentration than COMPOUND B (i.e. 5×10^−3 M). The samples were subsequently washed during 30 min, as previously described.
Detection of the contrast media by ex vivo imaging and Gd quantification—For ex vivo MRI, the aortic slices were transferred in a new 24-wells plate and embedded in a semi-solid agar-agar gel (0.8% m/v) at room temperature. Images were performed on a 2.35 T MRI system (Biospec, Bruker, Germany), using a 7 cm inner diameter birdcage coil and a 200 mT/m insert gradient. A 3D T1w SNAP sequence was acquired with following parameters (TR/TE/α=20 ms/4.2 ms/75°, Matrix 256*256*16, resolution 235*175*1000 μm^3, duration 21′49″) to have a compromise between resolution, short duration for screening and sections localization. Finally, the gel was removed from the aortic segments and the Gd contained in each precisely weighed sample was quantified by ICP-MS after acidic mineralization.

[5] = system: atherosclerotic human sections (carotid artery); experiment: Ex vivo MRI and Gd quantification on human carotid endarterectomy sections; settings: 18 h incubation, 30 min washing
Description: Samples of fresh carotid artery were obtained from patients (n=21) undergoing carotid endarterectomy. Specimen consisted of the common carotid artery, as well as the internal and external carotid arteries. The excised plaques were rinsed in ice-cold saline and they were used in the 2-4 hours following surgery.
as §4
Ex vivo incubation—All the slices were deposited in a 24-wells culture plate. […] After pre-determined incubation periods of 1 h, 3 h or 18 h, the slices originating from the WHHL rabbits were either immediately imaged, or subjected to a washing during 30 min, 1 h or 3 h (n=3 for each condition) in 10.0 ml of Krebs-Ringer bicarbonate buffer, with the medium being replaced every hour. […]
Detection of the contrast media by ex vivo imaging and Gd quantification—For ex vivo MRI, the aortic slices were transferred in a new 24-wells plate and embedded in a semi-solid agar-agar gel (0.8% m/v) at room temperature. […] Finally, the gel was removed from the aortic segments and the Gd contained in each precisely weighed sample was quantified by ICP-MS after acidic mineralization.

human MMP-3 [6] = biological target: T3, human MMP-3 (Homo sapiens, UniProt P08254); experiment: In vitro MMP inhibition assay (fluorimetric), MMP-3; assay type: biochemical; settings: for % inhibition of control values: mean of duplicate
T3 construct: made in house; host or cells: Sf9 insect cells
T3 sequence (P08254 100-477): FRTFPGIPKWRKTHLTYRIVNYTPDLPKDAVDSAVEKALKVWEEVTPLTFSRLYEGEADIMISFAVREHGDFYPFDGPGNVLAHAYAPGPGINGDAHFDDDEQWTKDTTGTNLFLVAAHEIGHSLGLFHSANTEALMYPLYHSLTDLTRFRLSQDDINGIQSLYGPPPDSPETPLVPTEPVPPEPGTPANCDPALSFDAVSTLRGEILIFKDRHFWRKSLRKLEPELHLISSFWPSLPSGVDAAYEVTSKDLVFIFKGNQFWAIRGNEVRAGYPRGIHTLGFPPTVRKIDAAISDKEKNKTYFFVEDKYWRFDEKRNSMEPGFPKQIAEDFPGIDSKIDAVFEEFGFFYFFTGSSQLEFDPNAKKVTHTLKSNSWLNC
Description: as §1

human MMP-1 [7] = biological target: T1, human MMP-1; settings: reported value; cited from earlier work
human MMP-2 [8] = biological target: T2, human MMP-2; settings: reported value; cited from earlier work
human MMP-3 [9] = biological target: T3, human MMP-3; settings: reported value; cited from earlier work

Molecule: CC(C)C[C@@H](NC(=O)[C@@H]1CCCN1C(=O)CNC(=O)c1ccc(NC(=S)Nc2ccc(CCC(C(=O)O)N3CCN(CC(=O)O)CCN(CC(=O)O)CCN(CC(=O)O)CC3)cc2)cc1)C(=O)N[C@@H](C)C(=O)NO (some centres unmarked) [Compound B]
- inhibitory activity on MMP-1 (in words) (human MMP-1 [1]): effective
- inhibitory activity on MMP-2 (in words) (human MMP-2 [2]): effective
- half-life [3]: 15 min
- concentration in the arterial wall compared to Dotarem (ApoE-KO mice; artery specimen, 60 min post-injection, p<0.01): 3-3.5 times
- ex vivo MRI enhancement after inhibition/competition with free peptide ([4]; 30 min preliminary incubation with free peptide 5×10^−3 M, then 18 h incubation, 30 min washing): very faint enhancement
- ex vivo MRI enhancement of the sections [4]: strong but more delineated enhancement
- amount of Gd in the sections by ICP-MS (mean value) [4]: 5-11 nmol/section
- mean Gd concentration after washing ([4]; incubated 3 h or 18 h, after 30 min and 1 h of washing): 1-8 nmol/section
- enhancement of atherosclerotic human sections (MRI ex vivo and Gd quantification) [5]: able to enhance

Molecule: O=C([O-])CN1CCN(CC(=O)[O-])CCN(CC(=O)O)CCN(CC(=O)[O-])CC1.[Gd+3] [Gd-DOTA, gadoteric acid]
- half-life of elimination in plasma (ApoE-KO mice; i.v.): 15 min
- Gd concentration after first washing step (mean value) ([4]; after 30 min washing): < 0.8 nmol/section
- ex vivo MRI enhancement of the sections [4]: strong, but diffuse, enhancement
- amount of Gd in the sections by ICP-MS (mean value) [4]: 3-9 nmol/section
- enhancement of atherosclerotic human sections (MRI ex vivo and Gd quantification) [5]: not

Molecule: p-aminobenzoyl-Gly-Pro-D-Leu-D-Ala-NHOH [Peptide]
- % inhibition of control values (human MMP-1 [1]; MMP-1, test concentration 1.0E−05 M): 46%
- % inhibition of control values (human MMP-1 [1]; MMP-1, test concentration 1.0E−07 M): 10%
- % inhibition of control values (human MMP-1 [1]; MMP-1, test concentration 1.0E−09 M): 9%
- inhibitory activity on MMP-1 (in words) (human MMP-1 [1]): effective
- % inhibition of control values (human MMP-2 [2]; MMP-2, test concentration 1.0E−04 M): 94%
- % inhibition of control values (human MMP-2 [2]; MMP-2, test concentration 1.0E−05 M): 68%
- % inhibition of control values (human MMP-2 [2]; MMP-2, test concentration 1.0E−07 M): 5%
- inhibitory activity on MMP-2 (in words) (human MMP-2 [2]): effective
- inhibitory activity on MMP-3 (in words) (human MMP-3 [6]): no activity
- % inhibition of control values (human MMP-3 [6]; MMP-3, test concentration 1.0E−05 M): 8%
- % inhibition of control values (human MMP-3 [6]; MMP-3, test concentration 1.0E−07 M): 4%
- % inhibition of control values (human MMP-3 [6]; MMP-3, test concentration 1.0E−09 M): 0%
- IC50 (human MMP-1 [7]): 1 µM
- IC50 (human MMP-2 [8]): 30 µM
- IC50 (human MMP-3 [9]): 150 µM
